Where no end group is shown, it is not given here. The star is where a group is joined. Octanoyl = CCCCCCCC(=O)*
Columns and labels:
Type in all cases: in vivo, rat
[1] = system: rats exposed to 10 Gy WBI; assay: Survival study after whole body irradiation (WBI); conditions: 10 Gy WBI rats, 30 day observation, vehicle 30%
Procedure: Experimental animals. Male Sprague-Dawley (SD) rats (250-350 g) purchased from Charles River Laboratories (Wilmington, Mass., USA) were used. The rats were housed in a temperature-controlled room on a 12-h light/dark cycle and fed on a standard Purina rat chow diet. Animal experimentation was carried out in accordance with the Guide for the Care and Use of Laboratory Animals. This project was approved by the Institutional Animal Care and Use Committee (IACUC) of the Feinstein Institute for Medical Research.
Animal model of whole body irradiation. […]
Survival study. To assess the survival benefits of human ghrelin, animals were exposed to 10 Gy WBI and treated with human ghrelin (20 nmol/rat) subcutaneously once a day, with the first dose given either at 24 h or 48 h after WBI, for 6 days and observed for 30 days, and the survival recorded. […] Rats in the survival study were monitored twice daily and weighed once a day during the 30 day survival period. Net weight change was calculated as: % Weight Change ((weight at each day−weight at day 0)/weight at day 0)×100.
Statistical analysis. All data are expressed as mean±SE and analyzed by one way analysis of variance (ANOVA) and compared using Student Newman Keul's test for multiple comparisons. […]

serum albumin = assay: Serum albumin level after WBI; conditions: Day 7 after 10 Gy WBI; WBI decreased it by 19%
Procedure: (§1) Animal model of whole body irradiation. Rats were exposed to whole body irradiation (WBI) of 10 Gray (Gy) using a Gammacell® 1000 Irradiator (Atomic Energy of Canada Ltd) [radiation source: Cesium-137 (^137Cs)] delivered at a dose rate of about 2.5 GY/min. The animals were sedated with intra-peritoneal pentobarbital (40 mg/kg BW) prior to irradiation. During radiation, the container rotated continuously in front of the radiation source for even exposure. The animals were then returned to their cages, and food and water were provided.
Blood and Tissue Collection after WBI. Rats exposed to 10 Gy WBI were treated with 20 nmol/rat human ghrelin once a day for 6 days starting at 24 h after radiation. At the 7th day, rats were euthanized, and blood, liver and the small intestine were removed under sterile conditions. The blood was allowed to clot and following centrifugation, the serum was transferred into pyrogenic free sterile tubes, and stored at −80° C. until further analysis. Liver (0.25 g) was snap-frozen in liquid nitrogen and stored at −80° C. for subsequent bacterial translocation analysis. […]
Serum glucose and albumin levels. Serum levels of glucose and albumin were determined using Liquid Glucose Hexokinase Reagent Set and Albumin Reagent Set (Pointe Scientific, Inc.) respectively according to manufacturer's instructions.

Bcl-xl = assay: Western blot of jejunal Bcl-xl protein; conditions: jejunum, Day 7 after 10 Gy WBI
Procedure: as §1
Blood and Tissue Collection after WBI. Rats exposed to 10 Gy WBI were treated with 20 nmol/rat human ghrelin once a day for 6 days starting at 24 h after radiation. At the 7th day, rats were euthanized, and blood, liver and the small intestine were removed under sterile conditions. […]
Western blot analysis. […] After overnight incubation with the primary antibodies at 4° C., the membranes were washed with TBS-T Immunoreactive bands were detected using HRP-linked secondary antibody (Southern Biotech, Birmingham, Ala.) and the Enhanced Chemiluminescence (ECL) Western blot detection kit (Amersham, Piscataway, N.J.). The immunoblots were exposed to X-ray film and analyzed with the NIH Image J analysis system. […]

ICAM-1 = assay: Jejunal ICAM-1 mRNA expression by real time PCR; conditions: jejunum, Day 7 after 10 Gy WBI; vehicle increased by 69%
Procedure: as §1
(§2) Blood and Tissue Collection after WBI. Rats exposed to 10 Gy WBI were treated with 20 nmol/rat human ghrelin once a day for 6 days starting at 24 h after radiation. At the 7th day, rats were euthanized, and blood, liver and the small intestine were removed under sterile conditions. The blood was allowed to clot and following centrifugation, the serum was transferred into pyrogenic free sterile tubes, and stored at −80° C. until further analysis. Liver (0.25 g) was snap-frozen in liquid nitrogen and stored at −80° C. for subsequent bacterial translocation analysis. Small intestine, 10-15 cm of the ileum, was harvested for gut permeability studies, 10 cm of jejunum was collected for histopathology, and the remaining 10 cm jejunal segment each was collected for RNA and protein analyses.
(§3) Total RNA extraction and real time PCR. […]

CD73 = assay: Jejunal CD73 mRNA expression by real time PCR; conditions: jejunum, Day 7 after 10 Gy WBI; vehicle decreased by 62%
Procedure: as §1, §2, §3

## ghrelin (GSS(Octanoyl)FLSPEHQRVQQRKESKKPPAKLQPR; listed as Homo sapiens) [human ghrelin]
[1]; 20 nmol/rat s.c. once a day for 6 days starting at 24 h after WBI
  survival rate: 63%
[1]; 20 nmol/rat s.c. once a day for 6 days, treatment initiated at 48 h after WBI
  survival rate: 61%
Serum albumin
  serum albumin levels: restored to sham values
Bcl-xl; vehicle 34% reduction
  Bcl-xl protein levels, restored by: 75%
Bcl-xl; vehicle 54% reduction
  Bcl-xl/Bax ratio, increase from the vehicle: 55%
ICAM-1
  ICAM-1 mRNA expression, inhibition from the vehicle levels: 51%
CD73
  CD73 mRNA expression, restored by: 70%

From US10265383B2, “Treatment of radiation injury using ghrelin” (priority 2014, dated 2019)
